Data as given in patent US8192962B2, “Processes for detecting toxic substances” (Daikin Industries, Ltd., priority 2001, dated 2012).

Test system: Transport facilitation protein genes
Assay: DNA chip mRNA expression in yeast, transport facilitation protein genes (Table 5)
Assay type: cell-based, Saccharomyces cerevisiae S288C
Summary of the method: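 In this screen, yeast in logarithmic growth are challenged for two hours with a toxic substance at a non-lethal inhibitory concentration. Their mRNA, converted to Cy3- or Cy5-labeled cDNA, hybridizes at 65° C. to a chip spanning every yeast gene, and expression is expressed as a ratio to untreated cells.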

Compound: [Cl][Cd][Cl] [(2), CdCl2]
- The level of expressed mRNA in the presence of chemical substance/The level of expressed mRNA in the absence of chemical substance (yeast gene YGR224W): 1.2
- The level of expressed mRNA in the presence of chemical substance/The level of expressed mRNA in the absence of chemical substance (yeast gene YGR260W): 0.7
- The level of expressed mRNA in the presence of chemical substance/The level of expressed mRNA in the absence of chemical substance (yeast gene YGR281W): 1.0
- The level of expressed mRNA in the presence of chemical substance/The level of expressed mRNA in the absence of chemical substance (yeast gene YHL035C): 1.3
- The level of expressed mRNA in the presence of chemical substance/The level of expressed mRNA in the absence of chemical substance (yeast gene YHL040C): 4.9
- The level of expressed mRNA in the presence of chemical substance/The level of expressed mRNA in the absence of chemical substance (yeast gene YHL047C): 4.4
- The level of expressed mRNA in the presence of chemical substance/The level of expressed mRNA in the absence of chemical substance (yeast gene YHR026W): 1.0
- The level of expressed mRNA in the presence of chemical substance/The level of expressed mRNA in the absence of chemical substance (yeast gene YHR092C): 1.0
- The level of expressed mRNA in the presence of chemical substance/The level of expressed mRNA in the absence of chemical substance (yeast gene YHR094C): 1.2
- The level of expressed mRNA in the presence of chemical substance/The level of expressed mRNA in the absence of chemical substance (yeast gene YHR175W): 2.0
- The level of expressed mRNA in the presence of chemical substance/The level of expressed mRNA in the absence of chemical substance (yeast gene YIL006W): 1.1
- The level of expressed mRNA in the presence of chemical substance/The level of expressed mRNA in the absence of chemical substance (yeast gene YIL022W): 0.7
- The level of expressed mRNA in the presence of chemical substance/The level of expressed mRNA in the absence of chemical substance (yeast gene YIL056W): 0.9
- The level of expressed mRNA in the presence of chemical substance/The level of expressed mRNA in the absence of chemical substance (yeast gene YIL088C): 2.1
- The level of expressed mRNA in the presence of chemical substance/The level of expressed mRNA in the absence of chemical substance (yeast gene YJL034W): 1.7
- The level of expressed mRNA in the presence of chemical substance/The level of expressed mRNA in the absence of chemical substance (yeast gene YJL212C): 3.2
- The level of expressed mRNA in the presence of chemical substance/The level of expressed mRNA in the absence of chemical substance (yeast gene YJL219W): 2.5
- The level of expressed mRNA in the presence of chemical substance/The level of expressed mRNA in the absence of chemical substance (yeast gene YJR077C): 1.1
- The level of expressed mRNA in the presence of chemical substance/The level of expressed mRNA in the absence of chemical substance (yeast gene YJR106W): 3.8
- The level of expressed mRNA in the presence of chemical substance/The level of expressed mRNA in the absence of chemical substance (yeast gene YJR121W): 1.1
- The level of expressed mRNA in the presence of chemical substance/The level of expressed mRNA in the absence of chemical substance (yeast gene YKL016C): 1.3
- The level of expressed mRNA in the presence of chemical substance/The level of expressed mRNA in the absence of chemical substance (yeast gene YKL146W): 1.3
- The level of expressed mRNA in the presence of chemical substance/The level of expressed mRNA in the absence of chemical substance (yeast gene YKR039W): 3.5
- The level of expressed mRNA in the presence of chemical substance/The level of expressed mRNA in the absence of chemical substance (yeast gene YKR067W): 2.6
- The level of expressed mRNA in the presence of chemical substance/The level of expressed mRNA in the absence of chemical substance (yeast gene YLL028W): 0.9
- The level of expressed mRNA in the presence of chemical substance/The level of expressed mRNA in the absence of chemical substance (yeast gene YLR081W): 0.8
- The level of expressed mRNA in the presence of chemical substance/The level of expressed mRNA in the absence of chemical substance (yeast gene YLR295C): 1.1
- The level of expressed mRNA in the presence of chemical substance/The level of expressed mRNA in the absence of chemical substance (yeast gene YLR348C): 4.5
- The level of expressed mRNA in the presence of chemical substance/The level of expressed mRNA in the absence of chemical substance (yeast gene YLR378C): 0.9
- The level of expressed mRNA in the presence of chemical substance/The level of expressed mRNA in the absence of chemical substance (yeast gene YMR011W): 1.0
- The level of expressed mRNA in the presence of chemical substance/The level of expressed mRNA in the absence of chemical substance (yeast gene YMR162C): 1.1
- The level of expressed mRNA in the presence of chemical substance/The level of expressed mRNA in the absence of chemical substance (yeast gene YMR203W): 0.7
- The level of expressed mRNA in the presence of chemical substance/The level of expressed mRNA in the absence of chemical substance (yeast gene YNL055C): 1.8
- The level of expressed mRNA in the presence of chemical substance/The level of expressed mRNA in the absence of chemical substance (yeast gene YNR072W): 1.5
- The level of expressed mRNA in the presence of chemical substance/The level of expressed mRNA in the absence of chemical substance (yeast gene YOL119C): 4.8
- The level of expressed mRNA in the presence of chemical substance/The level of expressed mRNA in the absence of chemical substance (yeast gene YOL156W): 0.7
- The level of expressed mRNA in the presence of chemical substance/The level of expressed mRNA in the absence of chemical substance (yeast gene YOL163W): 3.2
- The level of expressed mRNA in the presence of chemical substance/The level of expressed mRNA in the absence of chemical substance (yeast gene YOR035C): 1.2
- The level of expressed mRNA in the presence of chemical substance/The level of expressed mRNA in the absence of chemical substance (yeast gene YOR130C): 1.7
- The level of expressed mRNA in the presence of chemical substance/The level of expressed mRNA in the absence of chemical substance (yeast gene YOR153W): 0.9
- The level of expressed mRNA in the presence of chemical substance/The level of expressed mRNA in the absence of chemical substance (yeast gene YOR273C): 1.0
- The level of expressed mRNA in the presence of chemical substance/The level of expressed mRNA in the absence of chemical substance (yeast gene YOR316C): 2.5
- The level of expressed mRNA in the presence of chemical substance/The level of expressed mRNA in the absence of chemical substance (yeast gene YOR328W): 1.0
- The level of expressed mRNA in the presence of chemical substance/The level of expressed mRNA in the absence of chemical substance (yeast gene YOR332W): 1.0
- The level of expressed mRNA in the presence of chemical substance/The level of expressed mRNA in the absence of chemical substance (yeast gene YOR348C): 0.7
- The level of expressed mRNA in the presence of chemical substance/The level of expressed mRNA in the absence of chemical substance (yeast gene YPL036W): 0.8
- The level of expressed mRNA in the presence of chemical substance/The level of expressed mRNA in the absence of chemical substance (yeast gene YPL134C): 1.0
- The level of expressed mRNA in the presence of chemical substance/The level of expressed mRNA in the absence of chemical substance (yeast gene YPL271W): 3.2
- The level of expressed mRNA in the presence of chemical substance/The level of expressed mRNA in the absence of chemical substance (yeast gene YPR192W): 1.1
- The level of expressed mRNA in the presence of chemical substance/The level of expressed mRNA in the absence of chemical substance (yeast gene YPR194C): 1.4
